Values joined by “and” are separate entries in the source; they are usually repeats but may differ in a detail not shown here. Equal values may be shown once. ± gives the expanded uncertainty stated by the source. One block for each compound: values may come before it.
Conditions: Liquid

SMILES: CC(C)(C)O [2-methylpropan-2-ol]
vapor or sublimation pressure (322.78 K): 23.07 ± 0.35 kPa

SMILES: C=C(C)C [2-methylpropene]
vapor or sublimation pressure (322.79 K): 605.14 ± 2 kPa | vapor or sublimation pressure (323.11 K): 608.94 ± 2 kPa | vapor or sublimation pressure (323.14 K): 608.84 ± 2 kPa and 609.14 ± 2 kPa | vapor or sublimation pressure (323.15 K): 611.04 ± 2.1 kPa

SMILES: CO [methanol]
vapor or sublimation pressure (323.14 K): 55.57 ± 0.41 kPa

SMILES: CC(C)O [propan-2-ol]
vapor or sublimation pressure (323.16 K): 23.47 ± 0.35 kPa

Continued, values first:

vapor or sublimation pressure (323.11 K): 10.57 ± 0.34 kPa
SMILES: CCC(C)O (centres undefined) [butan-2-ol]

vapor or sublimation pressure (323.17 K): 29.27 ± 0.36 kPa
SMILES: CCO [ethanol]

— the NIST ThermoML archive (doi:10.1021/je034136z)
